{"source": "paper PMC12456999", "about": "“Sulfonyl Homoserine Lactones Are Tunable Probes to Inhibit the Quorum Sensing Receptor RhlR and Reduce Swarming Motility in Pseudomonas aeruginosa” (ACS Infectious Diseases, 2025)", "key": {"[1]": {"target": "T1, RhlR (Pseudomonas aeruginosa, UniProt P54292)", "T1 construct": "expressed in transfected cells; host or cells: E. coli JLD271 (K-12 ΔlacX74 sdiA271::Cam) carrying pJN105-R2 (RhlR expression) and pSC11-rhlI (rhlI'-lacZ reporter)", "T1 sequence (P54292 whole entry)": "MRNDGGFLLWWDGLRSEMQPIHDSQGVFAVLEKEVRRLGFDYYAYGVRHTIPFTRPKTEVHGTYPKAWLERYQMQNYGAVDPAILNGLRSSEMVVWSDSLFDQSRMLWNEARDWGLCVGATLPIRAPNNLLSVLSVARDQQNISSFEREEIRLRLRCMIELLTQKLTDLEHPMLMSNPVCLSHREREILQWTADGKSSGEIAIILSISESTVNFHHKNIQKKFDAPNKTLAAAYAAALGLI", "assay": "E. coli (JLD271) RhlR reporter antagonism assay, in competition with BHL", "assay_type": "cell-based", "conditions": "for max. RhlR inhibition (%): BHL at 10 μM set to 0%, media control set to 100%", "method": "To start, the sulfonyl HLs were evaluated for their ability to antagonize RhlR using a previously described E. coli strain (JLD271) harboring a RhlR expression plasmid and a rhlI reporter plasmid. This E. coli reporter produces RhlR, and protein activity in the presence of an added small molecule can be measured via the production of β-galactosidase as quantified via luminescence (see Methods). Compounds were screened in competition against RhlR’s native ligand, BHL (at its EC50 value in this strain, 10 μM), over a range of concentrations to generate antagonism dose–response curves (see Supporting Information) and calculate IC50 values (listed in Table ). A small set of compounds was also screened for RhlR agonism in the E. coli reporter; the agonism assay format was identical to the antagonism assay, except no BHL was added.\nRhlR activity in E. coli strain JLD271 (ΔsdiA) was measured via a β-galactosidase reporter (rhI-lacZ) using the Promega Beta-Glo Assay System as previously described. RhlR activity in P. aeruginosa PA14 (ΔrhlIΔlasI) was measured via a GFP reporter (rhlA-gfp). […] See Supporting Information for both reporter protocols.\nSupporting Information — Aguirre-Figueroa et al.\nE. coli and P. aeruginosa RhlR reporter assay protocols.\nE. coli RhlR reporter assay. RhlR activity in E. coli strain JLD271 (ΔsdiA) was measured via a β-galactosidase reporter using the Promega Beta-Glo® Assay System as previously described.10 A schematic of the reporter plasmids and assay protocol is shown in Scheme S1. Briefly, a single colony of E. coli JLD271 harboring the RhlR expression plasmid pJN105-R and the rhlI-lacZ transcriptional fusion reporter pSC11-R (Table S1) was grown in LB medium with 100 μg/mL ampicillin and 10 μg/mL gentamicin overnight (~16 h). The culture was diluted 1:10 in fresh LB medium and grown to an OD600 = 0.25 (0.23–0.28) (~0.5 h). Arabinose was added to a final concentration of 4 mg/mL to induce the expression of pJN105-R. Aliquots (2 μL) of compound DMSO stock solution or serial dilution were added to the inner wells (i.e., non-periphery rows) of a 96-well microtiter plate. To six inner wells, DMSO alone (vehicle) was added as a negative control. For agonism assays, BHL was added to six inner wells as a positive control (to achieve 1 mM). For antagonism assays, BHL was added to six inner wells as a positive control and to all of the other sample wells except for the vehicle control wells (to achieve 10 μM ). Subculture (198 μL) was then dispensed into each inner well. To the outer (periphery) wells, 200 μL of water were added to maintain humidity during incubation. Plates were then incubated for 4 h (shaking) at 37 °C.\nScheme S1. Schematic of E. coli reporter plasmids and assay. (A) Representation of plasmids used in the heterologous reporter system. (B) General reporter assay workflow. BioRender used in […]\nAfter the incubation period, the OD600 of each well was measured using a plate reader. Cell dilution plates were prepared by transferring 10 μL from the incubated culture plate wells to a fresh 96-well plate and adding 90 μL of 18 MΩ water to each well. Next, 10 μL aliquots of diluted Beta-Glo® reagent (1:2 with 18 MΩ water) were added to each well of a white 384-well microtiter plate, followed by 10 μL of culture from each well of the dilution plate. The 384-well plate was incubated (without shaking; i.e., static) for 30 min at 30 °C. After incubation, luminescence of each well was measured using a plate reader. To determine levels of RhlR activity, raw luminescence was divided by OD600 to correct for growth variation and then normalized to the negative (0%) and positive (100%) control wells.\nDose-response reporter assay data for compounds in the E. coli RhlR reporter.\nDose-response curves for RhlR antagonism by compounds against 10 μM BHL using the E. coli JLD271 RhlR reporter are provided below. Compound names are indicated on the x-axis of each plot.\nAll assays performed in triplicate as at least three separate biological replicates. […]"}, "[2]": {"system": "bacterial growth", "assay": "Effect on bacterial growth (OD600 over time)", "assay_type": "cell-based", "conditions": "at >2 mM concentrations", "method": "All new compounds were fully characterized for purity and identity (see Supporting Information). […] The remaining compounds had no effect on growth over the concentration range tested. All compounds were tested in bacteriological assays in triplicate and in at least three separate trials using unique cultures. IC50 and EC50 values in reporter assays were calculated using GraphPad Prism software (version 9.0) with a variable slope sigmoidal curve fit."}, "[3]": {"conditions": "IC50, E. coli JLD271 RhlR reporter, against 10 μM BHL"}, "[4]": {"conditions": "E. coli JLD271 RhlR reporter, against 10 μM BHL"}, "[5]": {"conditions": "read-out: inhibitory potency on average (74, 75 and 18), average over the C4, C5 and C6 ASHLs, E. coli RhlR reporter"}}, "note": "Read-outs that look alike come from different tables or passages of the source. Marks after values point to notes of the source that are not given here."}
{"smiles": "Cc1ccc(CC(=O)N[C@H]2CCOC2=O)cc1", "note": "[Compound C19, 4-Me PHL, reference compound]", "values": [{"measurement": "max. RhlR inhibition (%)", "setting": "[1]; E. coli RhlR reporter", "result": 89, "unit": "%"}, {"measurement": "IC50", "setting": "[1]; [3]", "result": 5.46, "unit": "µM"}]}
{"smiles": "CCCCCCS(=O)(=O)N[C@H]1CCOC1=O", "note": "[Compound 18]", "values": [{"measurement": "IC50", "setting": "[1]; [4]", "result": 36.4, "unit": "µM"}, {"measurement": "max. RhlR inhibition (%)", "setting": "[1]; E. coli RhlR reporter", "result": 77, "unit": "%"}, {"measurement": "IC50", "setting": "[1]; [5]", "result": "~28", "unit": "µM"}]}
{"smiles": "O=C1OCC[C@@H]1NS(=O)(=O)c1ccc(Cl)c(Cl)c1Cl", "note": "[Compound 45, 2,3,4-tri-Cl BSHL]", "values": [{"measurement": "reduction of potency relative to 3,4-Cl BSHL (43)", "setting": "[1]; E. coli RhlR reporter IC50", "result": "at least 2 orders of magnitude"}, {"measurement": "max. RhlR inhibition (%)", "setting": "[1]; E. coli RhlR reporter", "result": 80, "unit": "%"}, {"measurement": "IC50", "setting": "[1]; [3]", "result": 1030, "unit": "µM"}]}
{"smiles": "O=C1OCC[C@@H]1NS(=O)(=O)c1ccc(Cl)cc1", "note": "[Compound 26]", "values": [{"measurement": "max. RhlR inhibition (%)", "setting": "[1]; E. coli RhlR reporter", "result": 96, "unit": "%"}, {"measurement": "IC50", "setting": "[1]; [3]", "result": 452, "unit": "µM"}, {"measurement": "effect on bacterial growth", "setting": "[2]", "result": "modest effect on bacterial growth"}]}
{"smiles": "CCCS(=O)(=O)N[C@H]1CCOC1=O", "note": "[Compound 72, C3-AHSL]", "values": [{"measurement": "activity profile in RhlR", "setting": "[1]; E. coli RhlR reporter dose-response curves", "result": "weak partial agonist"}, {"measurement": "max. RhlR inhibition (%)", "setting": "[1]; E. coli RhlR reporter", "result": "45 ^f %"}]}
{"smiles": "Cc1cccc(S(=O)(=O)N[C@H]2CCOC2=O)c1", "note": "[Compound 93]", "values": [{"measurement": "max. RhlR inhibition (%)", "setting": "[1]; E. coli RhlR reporter", "result": 95, "unit": "%"}, {"measurement": "IC50", "setting": "[1]; [3]", "result": 127, "unit": "µM"}]}
{"smiles": "O=C1OCC[C@@H]1NS(=O)(=O)c1cccc(F)c1", "note": "[Compound 88, 3-fluoro BSHL]", "values": [{"measurement": "max. RhlR inhibition (%)", "setting": "[1]; E. coli RhlR reporter", "result": 92, "unit": "%"}, {"measurement": "IC50", "setting": "[1]; [3]", "result": 120, "unit": "µM"}]}
{"smiles": "COc1cccc(S(=O)(=O)N[C@H]2CCOC2=O)c1", "note": "[Compound 48]", "values": [{"measurement": "max. RhlR inhibition (%)", "setting": "[1]; E. coli RhlR reporter", "result": 88, "unit": "%"}, {"measurement": "IC50", "setting": "[1]; [3]", "result": 210, "unit": "µM"}]}
{"smiles": "CCCCS(=O)(=O)N[C@H]1CCOC1=O", "note": "[Compound 74]", "values": [{"measurement": "IC50", "setting": "[1]; [4]", "result": 35.2, "unit": "µM"}, {"measurement": "max. RhlR inhibition (%)", "setting": "[1]; E. coli RhlR reporter", "result": 70, "unit": "%"}, {"measurement": "IC50", "setting": "[1]; [5]", "result": "~28", "unit": "µM"}]}
{"smiles": "O=C1OCC[C@@H]1NS(=O)(=O)c1ccccc1Cl", "note": "[Compound 27, 2-chloro BSHL]", "values": [{"measurement": "max. RhlR inhibition (%)", "setting": "[1]; E. coli RhlR reporter", "result": 93, "unit": "%"}, {"measurement": "IC50", "setting": "[1]; [3]", "result": 545, "unit": "µM"}, {"measurement": "effect on bacterial growth", "setting": "[2]", "result": "modest effect on bacterial growth"}]}
{"smiles": "O=C1OCC[C@@H]1NS(=O)(=O)c1ccc(Cl)c(C(F)(F)F)c1", "note": "[Compound 60]", "values": [{"measurement": "max. RhlR inhibition (%)", "setting": "[1]; E. coli RhlR reporter", "result": 90, "unit": "%"}, {"measurement": "IC50", "setting": "[1]; [3]", "result": 93.1, "unit": "µM"}]}
{"smiles": "O=C1OCC[C@@H]1NS(=O)(=O)c1ccc(Br)c(Cl)c1", "note": "[Compound 73, 3-Cl, 4-Br BSHL]", "values": [{"measurement": "fold less potent than 43", "setting": "[1]; E. coli RhlR reporter IC50", "result": "over 2 fold"}, {"measurement": "max. RhlR inhibition (%)", "setting": "[1]; E. coli RhlR reporter", "result": 98, "unit": "%"}, {"measurement": "IC50", "setting": "[1]; [3]", "result": 118, "unit": "µM"}]}
{"smiles": "O=C(Cc1ccc(C(F)(F)F)cc1)N[C@H]1CCOC1=O", "note": "[Compound C20, 4-CF3 PHL, reference compound]", "values": [{"measurement": "max. RhlR inhibition (%)", "setting": "[1]; E. coli RhlR reporter", "result": 93, "unit": "%"}, {"measurement": "IC50", "setting": "[1]; [3]", "result": 10.3, "unit": "µM"}]}
{"smiles": "O=C1OCC[C@@H]1NS(=O)(=O)c1c(Cl)cccc1Cl", "note": "[Compound 89, 2,6-di-Cl-BSHL]", "values": [{"measurement": "max. RhlR inhibition (%)", "setting": "[1]; E. coli RhlR reporter", "result": 86, "unit": "%"}, {"measurement": "IC50", "setting": "[1]; [3]", "result": "> 1000", "unit": "µM"}]}
{"smiles": "O=C1OCC[C@@H]1NS(=O)(=O)c1ccc(F)cc1", "note": "[Compound 91]", "values": [{"measurement": "max. RhlR inhibition (%)", "setting": "[1]; E. coli RhlR reporter", "result": 97, "unit": "%"}, {"measurement": "IC50", "setting": "[1]; [3]", "result": 301, "unit": "µM"}]}
{"smiles": "O=C1OCC[C@@H]1NS(=O)(=O)c1ccc(F)c(C(F)(F)F)c1", "note": "[Compound 76]", "values": [{"measurement": "max. RhlR inhibition (%)", "setting": "[1]; E. coli RhlR reporter", "result": 84, "unit": "%"}, {"measurement": "IC50", "setting": "[1]; [3]", "result": 69.4, "unit": "µM"}]}
{"smiles": "O=C1OCC[C@@H]1NS(=O)(=O)Cc1ccc(F)cc1", "note": "[Compound 22, 4-F BnSHL]", "values": [{"measurement": "fold more potent in RhlR than 13 or 16", "setting": "[1]; E. coli RhlR reporter IC50", "result": "approximately 3 fold"}, {"measurement": "max. RhlR inhibition (%)", "setting": "[1]; E. coli RhlR reporter", "result": 94, "unit": "%"}, {"measurement": "IC50", "setting": "[1]; [3]", "result": 205, "unit": "µM"}]}
{"smiles": "O=C1OCC[C@@H]1NS(=O)(=O)Cc1ccc([N+](=O)[O-])cc1", "note": "[Compound 16, 4-NO2 BnSHL]", "values": [{"measurement": "max. RhlR inhibition (%)", "setting": "[1]; E. coli RhlR reporter", "result": 97, "unit": "%"}, {"measurement": "IC50", "setting": "[1]; [3]", "result": 1290, "unit": "µM"}]}
